Patent publication US8044100B2, “Methods and compositions for treating amyloid-related diseases” (Bellus Health Inc., priority 2004, dated 2011)

Tests used:
[1] = test system: Aβ peptides (Aβ40, Aβ42) in the plasma and brain of TgCRND8 mice; assay: Short term treatment (14 or 28 days) in TgCRND8 mice: Aβ levels in plasma and brain by ELISA; assay type: in vivo, mouse;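 as to Aβ40 Change Insoluble: symbols grade percent change in Aβ versus untreated control with plus for increase and minus for decrease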;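 as to Aβ40 Change Soluble: symbols grade percent change in Aβ versus untreated control with plus for increase and minus for decrease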;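 as to Aβ42 Change Insoluble: symbols grade percent change in Aβ versus untreated control with plus for increase and minus for decrease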
Procedure: The short term therapeutic effect of 19 compounds of the invention was studied. These compounds were administered over a 14 or 28 day period at the end of which the levels of Aβ peptides in the plasma and brain of TgCRND8 animals were determined.
Male and female transgenic mice from the 3rd and 4th B6C3F1 generations were used in this example and given daily subcutaneous or oral administrations of one of a series of compounds for 14 or 28 days. The following abbreviations are used to designate these animals from the 3rd and 4th generation backcross in the present protocol: TgCRND8-2.B6C3F1(N3); TgCRND8-2.B6C3F1 (N4).
Baseline animals (Group 1) consisted of naive TgCRND8-2. B6C3F1(N3) at 11±1 weeks of age. These mice were used to determine the Aβ levels in the plasma and brain of naive transgenic animals at the initiation of treatment.
Starting at 11 weeks of age (±1 week) animals received daily administration of their respective treatment for a period of 14 or 28 days (groups 2-21), at a dose of 250 mg/kg at 10 ml/kg or of vehicle only (water; group 2) or 1% methyl cellulose only (group 21). The route of administration was subcutaneous for water-soluble compounds and oral for compounds solubilized in methylcellulose 1%. (MC 1%). At the end of the treatment periods, plasma and perfused brains were collected for quantification of Aβ levels.
At 11±1 weeks of age for the Baseline group, and at the end of the treatment period (14 or 28 days) for Groups 2 to 21, at 24 hours after the last compound administration animals were sacrificed and samples collected. An approximate blood volume of 500 μl was collected from the orbital sinus and kept on ice until centrifugation at 4° C. at a minimum speed of 3,000 rpm for 10 minutes. Plasma samples were immediately frozen and stored at −80° C. pending analysis. The brains were removed, frozen, and stored at −80° C. awaiting analysis.
Brains were weighted frozen and homogenized with 4 volumes of ice cold 50 mM Tris-Cl pH 8.0 buffer with protease inhibitor cocktail (4 mL of buffer for 1 g of wet brain). Samples were spun at 15000 g for 20 minutes and the supernatants were transferred to fresh tubes. One hundred fifty (150) μl from each supernatant were mixed with 250 μl of 8M guanidine-HCL/50 mM Tris-HCL pH 8.0 (ratio of 0.6 vol supernatant:1 vol 8M guanidium/Tris-HCL 50 mM pH8.0) and 400 μL 5 M guanidium/Tris-HCL 50 mM pH8.0 were added. The tubes were vortexed for 30 seconds and frozen at −80° C. In parallel, pellets were treated with 7 volumes of 5 M guanidine-HCL/50 mM Tris-HCL pH 8.0 (7 mL of guanidine for 1 g of wet brain), vortexed for 30 seconds and frozen at −80° C. Samples were thawed at room temperature, sonicated at 80° C. for 15 minutes and frozen again. This cycle was repeated 3 times to ensure homogeneity and samples were returned to −80° C. pending analysis.
Aβ levels were evaluated in plasma and brain samples by ELISA using Human Aβ40 and Aβ42 Fluorometric ELISA kits from Biosource (Cat. No. 89-344 and 89-348) according to manufacturer's recommended procedures. In short, samples were thawed at room temperature, sonicated for 5 minutes at 80° C. (sonication for brain homogenates; no sonication for plasma samples) and kept on ice. Aβ peptides were captured using 100 μl of the diluted samples to the plate and incubated without shaking at 4° C. overnight. The samples were aspirated and the wells were rinsed 4 times with wash buffer obtained from the Biosource ELISA kit. The anti-Aβ40 or anti-Aβ42 rabbit polyclonal antiserum (specific for the Aβ40 or Aβ42 peptide) was added (100 μl) and the plate was incubated at room temperature for 2 hours with shaking. The wells were aspirated and washed 4 times before adding 100 μl of the alkaline phosphatase labeled anti-rabbit antibody and incubating at room temperature for 2 hours with shaking. The plates were then rinsed 5 times and the fluorescent substrate (100 μl) was added to the plate. […]

[2] = test system: Aβ peptides (Aβ40, Aβ42) in the plasma and brain of TgCRND8 mice; assay: Long term treatment (8 or 16 weeks) in TgCRND8 mice: Aβ levels in plasma and brain; assay type: in vivo, mouse; settings: BX subcutaneous, BW and BZ oral
Procedure: The long-term therapeutic effects of compounds of the present invention on cerebral amyloid deposition and β-amyloid (Aβ) levels in the plasma and in the brains of transgenic mice, TgCRND8, expressing the human amyloid precursor protein (hAPP) was studied. These compounds were administered over an 8 or 16 week period at the end of which the levels of Aβ peptides in the plasma and brain of TgCRND8 animals were determined. The goal of this study was to evaluate the efficacy of the compounds at modulating the progression of the amyloidogenic process in the brain and in the plasma of a transgenic mouse model of Alzheimer's disease (AD)
The mice used in the study consisted of animals bearing one copy of the hAPP gene (+/−) from the 2nd and 3rd generation progenies (N2 and N3) derived from backcrosses from TgCRND8.FVB(N2)AJ(N3) with B6AF1/J hybrid animals. • N1=TgCRND8.FVB(N2)AJ(N3)×B6AF1/J • N2=TgCRND8.FVB(N2)AJ(N3).B6AF1/J(N1)×B6AF1/J • N3=TgCRND8.FVB(N2)AJ(N3).B6AF1/J(N2)×B6AF1/J
The following abbreviations are used to designate these animals in the present study: TgCRND8.B6AF1/J(N2); TgCRND8.B6AF1/J(N3). Male and female transgenic mice were given daily subcutaneous (compound BX) or oral (compounds BW and BZ) administrations of the appropriate compounds for 8 or 16 weeks.
Baseline animals consisted of 9±1 week old naive TgCRND8.B6AF1/J animals from the 2nd and 3rd generations. These mice were used to determine the extent of cerebral amyloid deposits and Aβ levels in the plasma and brain of naive transgenic animals at the initiation of treatment.
Starting at 9 weeks of age (+1 week) animals received daily administration of their respective treatment for a period of 8 or 16 weeks, at a dose of 30 or 100 mg/kg at 10 ml/kg. The route of administration was subcutaneous for water-soluble compounds (Compound BX) and oral for compounds solubilized in methylcellulose 1% (MC 1%) (Compounds BW and BZ). At the end of the treatment periods, plasma and perfused brains were collected for quantification of Aβ levels.
Animal health was monitored, samples were collected and Aβ levels were measured as described above in the short term treatment study. Compounds were scored based on their ability to modulate levels of Aβ peptides in the plasma and the cerebral soluble/insoluble levels in the brain. Levels of Aβ observed in the plasma and brain of treated animals were compared to that of vehicle-treated (water) or methylcellulose-treated control groups and ranked according to the strength of the pharmacological effect. Increases in the levels of Aβ peptides are indicated using “+” symbols, while decreases in the levels of Aβ peptides are indicated using “−” symbols. The strongest effects are recorded as “+++” or “−−−” while the weakest are shown as “+” or “−”.
Specifically, increases in the levels of Aβ (relative to vehicle treated control) of 5 to 14% are scored as “+”; increases of 15 to 29% are scored as “++”; and increases of 30% or higher are scored as “+++”. Decreases in the levels of Aβ of 5 to 14% are scored as “−”; decreases of 15 to 29% are scored as “−−”; and decreases of 30% or more are scored as “−−−”. Additionally, changes of 4% or less in either direction are scored as “0”.

NAC peptide = target: T1, NAC peptide (Homo sapiens, UniProt P37840); assay: Binding to NAC peptide by electrospray mass spectrometry; settings: 5:1 ratio compound:NAC (100 μM:20 μM or 200 μM:40 μM), pH 7.4; bound complex peak area / unbound NAC peak area
T1 construct: NAC is a 35 amino acid long peptide with highly hydrophobic stretches
Procedure: The ability of the compounds of the present invention to bind to NAC peptide in aqueous solution was evaluated. The binding ability correlates to the intensities of the peptide-compound complex peaks observed by the Electrospray Mass Spectrum. Millipore distilled deionized water was used to prepare all aqueous solutions. For pH determination a Beckman Φ36 pH meter fitted with a Corning Semi-Micro Combination pH Electrode was employed.
The optimal cone voltage was determined to be 20V.
Mass spectrometry—Mass spectrometric analysis was performed using a Waters ZQ 4000 mass spectrometer equipped with a Waters 2795 sample manager. MassLynx 4.0 (earlier by MassLynx 3.5) was used for data processing and analysis. Test compounds were mixed with disaggregated peptides in aqueous media (6.6% EtOH) at a 5:1 ratio (20 μM NAC:100 μM of test compound or 40 μM NAC:200 μM of test compound). The pH of the mixture was adjusted to 7.4 (+0.2) using 0.1% NaOH (3-5 μL). Periodically, NAC peptide solution at 20 μM or 40 μM was also prepared in the same fashion and run as control. The spectra were obtained by introducing the solutions to the electrospray source by direct infusion using a syringe pump at a flow rate of 25 μl/min, and scanning from 100 to 2100 Da in the positive mode. The scan time was 0.9 sec per scan with an inter-scan delay of 0.1 sec and the run time was 5 min for each sample. All the mass spectra were sum of 300 scans. The desolvation and source temperature was 70° C. and the cone and capillary voltage were maintained at 20 V and 3.2 kV respectively.
The total area under the peaks for the bound NAC-compound complex divided by total area under the peaks for unbound NAC was determined for each compound tested.

[3] = brain homogenate, Day 14, methylcellulose group, daily oral
[4] = brain homogenate, Day 28, methylcellulose group, daily oral
[5] = plasma, Day 28, methylcellulose group, daily oral

O=S(=O)(O)CCCNC1C2CC3CC(C2)CC1C3 (stereo not drawn) [BZ]
Aβ40 Change Insoluble [1, 3]: −−− (decreases of 39% or more)
Aβ42 Change Insoluble [1, 3]: −− (decreases of 20 to 38%)
Aβ40 Change Insoluble [1, 4]: −− (decreases of 20 to 38%)
Aβ40 Change Soluble [1, 4]: −− (decreases of 20 to 38%)
Aβ42 Change Insoluble [1, 4]: −− (decreases of 20 to 38%)
Aβ40 Change ([1]; plasma, Day 14, methylcellulose group, 250 mg/kg daily oral): + (increases in the levels of Aβ (relative to untreated control) of 20 to 39%)
Aβ40 Change [1, 5]: ++ (increases of 40 to 69%)
Aβ42 Change [1, 5]: ++ (increases of 40 to 69%)
Brain Abeta40 insoluble ([2]; 30 mg/kg daily, 8 wks): −− (decreases of 15 to 29%)
Brain Abeta40 soluble ([2]; 30 mg/kg daily, 8 wks): 0 (changes of 4% or less in either direction)
Brain Abeta42 insoluble ([2]; 30 mg/kg daily, 8 wks): −−− (decreases of 30% or more)
Brain Abeta42 soluble ([2]; 30 mg/kg daily, 8 wks): 0 (changes of 4% or less in either direction)
Plasma Abeta40 ([2]; 30 mg/kg daily, 8 wks): 0 (changes of 4% or less in either direction)
Plasma Abeta42 ([2]; 30 mg/kg daily, 8 wks): 0 (changes of 4% or less in either direction)
Brain Abeta40 insoluble ([2]; 30 mg/kg daily, 16 wks): + (increases in the levels of Aβ (relative to vehicle treated control) of 5 to 14%)
Brain Abeta40 soluble ([2]; 30 mg/kg daily, 16 wks): 0 (changes of 4% or less in either direction)
Brain Abeta42 insoluble ([2]; 30 mg/kg daily, 16 wks): 0 (changes of 4% or less in either direction)
Brain Abeta42 soluble ([2]; 30 mg/kg daily, 16 wks): + (increases in the levels of Aβ (relative to vehicle treated control) of 5 to 14%)
Plasma Abeta40 ([2]; 30 mg/kg daily, 16 wks): 0 (changes of 4% or less in either direction)
Plasma Abeta42 ([2]; 30 mg/kg daily, 16 wks): + (increases in the levels of Aβ (relative to vehicle treated control) of 5 to 14%)
Brain Abeta40 insoluble ([2]; 100 mg/kg daily, 8 wks): 0 (changes of 4% or less in either direction)
Brain Abeta40 soluble ([2]; 100 mg/kg daily, 8 wks): ++ (increases of 15 to 29%)
Brain Abeta42 insoluble ([2]; 100 mg/kg daily, 8 wks): − (Decreases in the levels of Aβ of 5 to 14%)
Brain Abeta42 soluble ([2]; 100 mg/kg daily, 8 wks): 0 (changes of 4% or less in either direction)
Plasma Abeta40 ([2]; 100 mg/kg daily, 8 wks): ++ (increases of 15 to 29%)
Plasma Abeta42 ([2]; 100 mg/kg daily, 8 wks): +++ (increases of 30% or higher)
Brain Abeta40 insoluble ([2]; 100 mg/kg daily, 16 wks): 0 (changes of 4% or less in either direction)
Brain Abeta40 soluble ([2]; 100 mg/kg daily, 16 wks): −− (decreases of 15 to 29%)
Brain Abeta42 insoluble ([2]; 100 mg/kg daily, 16 wks): + (increases in the levels of Aβ (relative to vehicle treated control) of 5 to 14%)
Brain Abeta42 soluble ([2]; 100 mg/kg daily, 16 wks): − (Decreases in the levels of Aβ of 5 to 14%)
Plasma Abeta40 ([2]; 100 mg/kg daily, 16 wks): ++ (increases of 15 to 29%)
Plasma Abeta42 ([2]; 100 mg/kg daily, 16 wks): ++ (increases of 15 to 29%)

NCCS(=O)(=O)O [H2NCH2CH2SO3H]
Binding Strength (NAC peptide): + (Weak; when the total binding is between 70% and 30%)

O=S(=O)(O)CC(O)CNC1CCCCC1 (stereo not drawn) [drawing 751]
Binding Strength (NAC peptide): +++ (Strong; when the total binding is 120% and higher)

O=S(=O)([O-])CCCCS(=O)(=O)[O-].[Na+].[Na+] [NaO3SCH2(CH2)2CH2SO3Na]
Binding Strength (NAC peptide): − (None; when the total binding is between 30% and 0%)

O=S(=O)([O-])OCCCOS(=O)(=O)[O-].[Na+].[Na+] [NaO3SOCH2CH2CH2OSO3Na]
Binding Strength (NAC peptide): − (None; when the total binding is between 30% and 0%)

NCCCCS(=O)(=O)O
Binding Strength (NAC peptide): + (Weak; when the total binding is between 70% and 30%)

O=S(=O)(O)CCCNC1C2CC3CC(C2)CC1C3 (stereo not drawn) [drawing 749]
Binding Strength (NAC peptide): ++ (Moderate; when the total binding is between 120% and 70%)

NCCCOS(=O)(=O)[O-].[Na+] [H2NCH2CH2CH2OSO3Na]
Binding Strength (NAC peptide): ++ (Moderate; when the total binding is between 120% and 70%)
